Experimental data reported in patent publication US12116355B2, “Deuterated 1-piperazino-3-phenyl indanes for treatment of schizophrenia” (H. Lundbeck A/S, priority 2011, dated 2024).
Read-outs that look alike come from different tables or passages of the source.

Experiments:
[1] = target: recombinant human liver CYP3A4 (Homo sapiens (Human), UniProt P08684); assay: Metabolism by recombinant human liver CYP3A4; type: in vitro ADME
Protocol: (§1) The protein concentration was 0.5 mg/mL and the final volume was 0.5 mL. […] After 0, 15, 30, 60, 90, 120, and 180 minutes, the reactions were terminated by transferring the subcellular fraction to 0.5 mL of stopping reagent containing internal standard. The incubations were carried out in triplicate. The samples were centrifuged at 4000×g (4° C., 15 minutes) and the supernatants were analyzed by HPLC-MS/MS. Data were expressed as MS area relative to an internal standard.

[2] = Metabolism in pooled human liver microsomes, formation of desmethyl metabolite; type: in vitro ADME
Protocol: Pooled human liver microsomes (50 donors, from Xenotech) were incubated with 1 μM or 10 μM of compound at 37° C. […] The protein concentration was 0.2 mg/mL and the final volume was 0.5 mL. Following a 10-minute pre-incubation, the reaction was initiated by adding Compound. After 0, 15, 30, 60, 90, 120, and 180 minutes, the reactions were terminated by transferring the subcellular fraction to 0.5 mL of stopping reagent containing internal standard. The incubations were carried out in triplicate. The samples were centrifuged at 4000 g (4° C., 15 min) and the supernatants were analyzed by HPLC-MS/MS. Data were expressed as MS area relative to an internal standard.

[3] = target: recombinant human liver CYP2C19 (Homo sapiens (Human), UniProt P33261); assay: Metabolism by recombinant human liver CYP2C19; type: in vitro ADME
Protocol: as §1

[4] = system: D2 receptors in rat brain; assay: In vivo binding to D2 receptors in rat brain; conditions: 20 mg/kg subcutaneous 30 minutes before [3H]-raclopride i.v.
Protocol: Description of In Vivo Binding to D2 Receptors in Rat Brain
Briefly, 6 rats (male Wistar, 180-200 g) were treated with 20 mg/kg test compound subcutaneous 30 minutes before receiving 9.4 micro Ci [^3H]-raclopride intravenously via the tail vein.
15 minutes after the injection of the radio ligand, the animals were killed by cervical dislocation, the brain quickly removed, and striatum and cerebellum dissected out and homogenized in 5 mL (cerebellum in 20 mL) ice-cold buffer (50 mM K3PO4, pH 7.4). 1.0 mL of the homogenate was filtered through 0.1% PEI-soaked Whatman GF/C filters. This was completed within 60 seconds subsequent to the decapitation. Filters were washed 2 times with 5 mL ice-cold buffer and counted in a scintillation counter. A group of vehicle-treated animals was used to determine [^3H]-raclopride total binding in striatum and non-specific binding in cerebellum.

[5] = system: PCP-induced hyperactivity in mice; assay: PCP-induced hyperactivity in mice; conditions: hydrogen tartrate s.c. 30 minutes before test, PCP 2.3 mg/kg s.c.
Protocol: Locomotor activity was measured for 60 minutes as number of beam breaks (counts). Eight-to-16 male mice were used in each group. ##indicates P<0.01 versus Vehicle-PCP (One-way analysis of variance [ANOVA] followed by Bonferroni post-hoc test).

[6] = Solubility of salts of Compound (IV); type: physicochemical
[7] = Human pharmacokinetic multiple oral dose study; type: in vivo; conditions: male, healthy young men, 3 mg daily oral for 18 days, plasma after last dose, read-out: mean AUC 0-24 of parent compound
From the text: The pharmacokinetics of Compound (IV) and Compound (X) were compared in a multiple oral dose study in healthy young men.

[8] = Log P / log D profile by titration with n-octanol; type: physicochemical; conditions: n-octanol:water, 27° C., ion strength approximately 0.16
Protocol: A series of three repeated titrations on the same sample in solution was performed, from low to high pH. The first titration was performed with a small amount of n-octanol present in the solution, the second and third with increasing amounts.
A difference curve was created from each of these titrations by blank subtraction, and from these difference curves, the apparent pKa values (poKa) were calculated. From the change in the apparent pKa values (ΔpKa) with the n-octanol:water ratio combined with the real pKa value, the Log P value was calculated and the Log D profile was derived.

[9] = pKa determination by potentiometric titration / Dip Probe Absorption Spectroscopy; type: physicochemical; conditions: ion strength 0.16, extrapolated to zero MeOH
Protocol: pKa was determined by potentiometric titration of the base at ion strength 0.16 using MeOH as co-solvent. Three series of three repeated titrations on the same solution of the sample was performed in a conventional way from low to high pH and a difference curve was created from each of these titrations by blank subtraction. The apparent pKa-value at each MeOH:water ratio is calculated from the difference curves, and the pKa value is determined by extrapolation to zero MeOH content.
The lower pKa was determined by Dip Probe Absorption Spectroscopy detection during titration of the base at ion strength 0.16 using MeOH as co-solvent. The change in absorption spectra as a function of ionisation is used to calculate the pKa value. Two series of three repeated titrations on the same solution of the sample was performed from low to high pH, with a photo diode array as additional detection. The apparent pKa value at each MeOH:water ratio is calculated by target factor analysis on the change in absorption spectra, and the pKa value is determined by extrapolation to zero MeOH content.

catalepsy in rats [10] = assay: Catalepsy test in rats; type: in vivo, rats (male Sprague Dawley); conditions: tartrate s.c. 30 minutes before test
From the text: Catalepsy is thought to reflect drug-induced suppression of the ability to initiate a behavioral response. The catalepsy test in rats is a common and widely used preclinical screening test for the EPS liability of potentially antipsychotic drugs. Although catalepsy is usually assessed following acute drug administration, the test has proven to be a reliable predictor for the propensity of an antipsychotic drug to induce EPS (that is, pseudo parkinsonism, dystonia) in humans (Elliott, P. J. et al, J. Neural. Transm. Park. Dis. Dement. Sect. 1990, 2, 79-89; herein incorporated by reference in its entirety). […] The minimal effective dose inducing catalepsy was 10 mg/kg (FIG. 17). […] Eight male Sprague Dawley rats were used in each group. # indicates P<0.05, ## indicates P<0.01 versus vehicle (One-way ANOVA followed by Bonferroni post-hoc test). This dose is 100 times higher than the dose indicating antipsychotic activity (FIG. 16).

[11] = system: cryopreserved dog hepatocytes; assay: Metabolism in cryopreserved dog hepatocytes, formation of desmethyl metabolite; type: in vitro ADME, dog (male Beagle dog); conditions: for amount of desmethyl metabolite (Compound (XI)) produced, versus Compound (X): cryopreserved dog hepatocytes
Protocol: Cryopreserved dog (male Beagle dog) hepatocytes (1 million cells/mL in suspension, 50 μL/well) were pre-incubated for 15 minutes in a 96-well plate at 37° C. water bath in DMEM high glucose buffered with 1 M HEPES.

catalepsy in rats [12] = conditions: fumarate salt, J. Med. Chem. 1995, 38, 4380-4392; cited from earlier work
D1 = conditions: in vitro, J. Med. Chem. 1995, 38, 4380-4392; cited from earlier work
5-HT2 = conditions: J. Med. Chem. 1995, 38, 4380-4392; cited from earlier work
D2 = conditions: in vitro, J. Med. Chem. 1995, 38, 4380-4392; cited from earlier work

recombinant human liver CYP2C19, sequence (P33261 whole entry): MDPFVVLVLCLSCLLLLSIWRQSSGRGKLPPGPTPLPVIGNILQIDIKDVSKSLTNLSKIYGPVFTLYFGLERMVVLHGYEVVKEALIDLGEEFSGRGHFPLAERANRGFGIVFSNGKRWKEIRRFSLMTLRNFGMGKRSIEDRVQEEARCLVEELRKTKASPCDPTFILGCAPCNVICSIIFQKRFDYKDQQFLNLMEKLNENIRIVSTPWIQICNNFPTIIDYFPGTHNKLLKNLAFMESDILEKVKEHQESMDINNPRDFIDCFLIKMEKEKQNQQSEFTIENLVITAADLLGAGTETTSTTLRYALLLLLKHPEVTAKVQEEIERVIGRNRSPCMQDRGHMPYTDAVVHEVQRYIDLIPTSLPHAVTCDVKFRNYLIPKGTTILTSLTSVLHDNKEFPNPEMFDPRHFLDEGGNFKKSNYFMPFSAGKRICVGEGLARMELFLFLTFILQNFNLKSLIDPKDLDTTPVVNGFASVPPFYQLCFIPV
recombinant human liver CYP3A4, sequence (P08684 whole entry): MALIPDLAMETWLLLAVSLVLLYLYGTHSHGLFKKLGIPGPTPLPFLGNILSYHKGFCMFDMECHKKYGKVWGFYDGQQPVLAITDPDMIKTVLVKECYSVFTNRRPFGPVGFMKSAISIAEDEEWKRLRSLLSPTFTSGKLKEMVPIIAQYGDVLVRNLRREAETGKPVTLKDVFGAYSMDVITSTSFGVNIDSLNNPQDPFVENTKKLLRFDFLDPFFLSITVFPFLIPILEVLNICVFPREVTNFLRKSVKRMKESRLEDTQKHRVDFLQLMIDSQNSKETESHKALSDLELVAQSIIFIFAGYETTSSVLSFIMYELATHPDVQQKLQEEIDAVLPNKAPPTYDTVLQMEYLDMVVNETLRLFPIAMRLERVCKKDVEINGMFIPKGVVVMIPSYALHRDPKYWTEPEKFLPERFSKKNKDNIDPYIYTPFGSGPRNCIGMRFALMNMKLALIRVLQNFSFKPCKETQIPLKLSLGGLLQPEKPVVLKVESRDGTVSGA

Structure (SMILES): [2H]c1c([2H])c([2H])c([C@@H]2C[C@@H](N3CCN(C)C(C)(C)C3)c3cc(Cl)ccc32)c([2H])c1[2H] (single isomer, unassigned) [Compound (II)]
- amount of desmethyl metabolite produced, versus Compound (X) ([1]; 1 mM (so in the source)): lower
- amount of desmethyl metabolite produced, versus Compound (X) ([1]; 10 mM (so in the source)): lower
- amount of desmethyl metabolite produced, versus Compound (X) ([2]; 1 μM): lower
- amount of desmethyl metabolite produced, versus Compound (X) ([2]; 10 μM): lower
- amount of desmethyl metabolite produced, versus Compound (X) ([3]; 1 μM): Corresponding results
- amount of desmethyl metabolite produced, versus Compound (X) ([3]; 10 μM): lower
- occupancy of D2 receptors by in vivo binding [4]: 75%

Structure (SMILES): CN1CCN([C@@H]2C[C@@H](c3ccccc3)c3ccc(Cl)cc32)CC1(C)C (single isomer, unassigned) [Compound (IV)]
- reversal of PCP-induced hyperactivity (locomotor activity) [5]: dose-dependently reverses

Structure (SMILES): [2H]c1c([2H])c([2H])c([C@@H]2C[C@@H](N3CCN(C([2H])([2H])[2H])C(C)(C)C3)c3cc(Cl)ccc32)c([2H])c1[2H] (single isomer, unassigned) [Compound (IV)]
- solubility ([6]; pH 7.6): 100 µg/mL
- pH of solubility solution ([6]; salts of Compound (IV)): 7.6
- AUC(0-t) [7]: 104 ng·h/mL
- amount of desmethyl metabolite produced, versus Compound (X) ([1]; 1 mM (so in the source)): lower
- amount of desmethyl metabolite produced, versus Compound (X) ([1]; 10 mM (so in the source)): lower
- amount of desmethyl metabolite produced, versus Compound (X) ([2]; 1 μM): lower
- amount of desmethyl metabolite produced, versus Compound (X) ([2]; 10 μM): lower
- logP [8]: 5.4 ± 0.4
- logD ([8]; pH 7.4, read-out: Log D7.4): 3.9 ± 0.4
- amount of desmethyl metabolite produced, versus Compound (X) ([3]; 1 μM): lower
- amount of desmethyl metabolite produced, versus Compound (X) ([3]; 10 μM): Corresponding results
- occupancy of D2 receptors by in vivo binding [4]: 70%
- pKa ([9]; Dip Probe Absorption Spectroscopy, read-out: lower pKa): 2.5 ± 0.1
- pKa ([9]; potentiometric titration, read-out: high pKa): 8.9 ± 0.1
- induction of catalepsy (catalepsy in rats [10]): dose-dependently induced catalepsy
- minimal effective dose inducing catalepsy (catalepsy in rats [10]): 10 mg/kg

Structure (SMILES): [2H]C([2H])([2H])N1CCN([C@@H]2C[C@@H](c3ccccc3)c3ccc(Cl)cc32)CC1(C)C [Compound (I), 4-((1R,3S)-6-chloro-3-phenyl-indan-1-yl)-1-methyl-d3-2,2-dimethyl-piperazine]
- amount of desmethyl metabolite (Compound (XI)) produced, versus Compound (X) ([11]; 0.1 μM): lower
- amount of desmethyl metabolite (Compound (XI)) produced, versus Compound (X) ([11]; 1 μM): lower
- decrease in formation of the desmethyl metabolite (Compound (XI)) in comparison to Compound (X) ([11]; dog hepatocytes): approximately 50%

Structure (SMILES): CN1CCN([C@@H]2C[C@@H](c3ccccc3)c3ccc(Cl)cc32)CC1(C)C [Compound (X), 4-((1R,3S)-6-Chloro-3-phenyl-indan-1-yl)-1,2,2-trimethyl-piperazine]
- catalepsy in rats (catalepsy in rats [12]): does not induce catalepsy
- AUC(0-t) [7]: 98 ng·h/mL
- D1 antagonism (D1): potent D1/D2 antagonist
- 5-HT2 antagonism (5-HT2): potent 5-HT2 antagonist
- D2 antagonism (D2): potent D1/D2 antagonist
